# Laboratory results: ChEMBL document CHEMBL1201862, “PubChem BioAssay data set” (2004)
#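 Tested at 5 concentrations; 48 h exposure; 96-well plates; endpoints linearly interpolated, else capped at highest concentration. GI50 is the concentration that inhibits growth by half.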 Activity calls are given as the source filed them. Cut-off read from the data, not from the text of the source: active = GI50 up to about 1.1 µM and inactive = higher.
# Legend:
# Assay in all cases: growth of human tumour cells (NCI), 48 h
# A498 = tested on: A498
# ACHN = tested on: ACHN
# CAKI-1 = tested on: CAKI-1
# CCRF-CEM = tested on: CCRF-CEM
# DU-145 = tested on: DU-145
# EKVX = tested on: EKVX
# HCC 2998 = tested on: HCC 2998
# HOP-92 = tested on: HOP-92
# K562 = tested on: K562
# MCF7 = tested on: MCF7
# MDA-MB-231 = tested on: MDA-MB-231
# NCI-H23 = tested on: NCI-H23
# OVCAR-3 = tested on: OVCAR-3
# OVCAR-8 = tested on: OVCAR-8
# SN12C = tested on: SN12C
# SR = tested on: SR
# SW-620 = tested on: SW-620
# TK-10 = tested on: TK-10
# UACC-257 = tested on: UACC-257
# SF-268 = tested on: SF-268
SMILES,GI50 (A498),GI50 (ACHN),GI50 (CAKI-1),GI50 (CCRF-CEM),GI50 (DU-145),GI50 (EKVX),GI50 (HCC 2998),GI50 (HOP-92),GI50 (K562),GI50 (MCF7),GI50 (MDA-MB-231),GI50 (NCI-H23),GI50 (OVCAR-3),GI50 (OVCAR-8),GI50 (SN12C),GI50 (SR),GI50 (SW-620),GI50 (TK-10),GI50 (UACC-257),GI50 (SF-268)
CC(=O)c1cnc2oc3ccc(O)cc3c2c1-c1ccccc1,17.5 µM (inactive),21.1 µM (inactive),29.4 µM (inactive),45 µM (inactive),32.1 µM (inactive),23.9 µM (inactive),38 µM (inactive),18.3 µM (inactive),41.6 µM (inactive),48.2 µM (inactive),25.2 µM (inactive),46.1 µM (inactive),17.3 µM (inactive),29.4 µM (inactive),44.4 µM (inactive),33.3 µM (inactive),> 100 µM (inactive),28.6 µM (inactive),65.2 µM (inactive),–
CCCCN(CCCC)CCC(O)c1cc2c(Cl)cc(Cl)cc2c2cc(C(F)(F)F)ccc12 (configuration not stated),3.59 µM (inactive),12 µM (inactive),12.2 µM (inactive),11.2 µM (inactive),10.3 µM (inactive),14.5 µM (inactive),11.7 µM (inactive),1.32 µM (inactive),6.73 µM (inactive),10.2 µM (inactive),2.52 µM (inactive),12.4 µM (inactive),11.6 µM (inactive),14.3 µM (inactive),5.05 µM (inactive),10.3 µM (inactive),11.3 µM (inactive),13.4 µM (inactive),14.5 µM (inactive),11.7 µM (inactive)
COc1ccc(-c2cc(-c3ccc(Nc4ccnc5cc(C(F)(F)F)ccc45)cc3)nc(N)c2C#N)c2ccccc12,> 100 µM (inactive),> 100 µM (inactive),> 100 µM (inactive),–,> 100 µM (inactive),> 100 µM (inactive),> 100 µM (inactive),> 100 µM (inactive),–,97.9 µM (inactive),> 100 µM (inactive),> 100 µM (inactive),> 100 µM (inactive),–,–,32.5 µM (inactive),> 100 µM (inactive),> 100 µM (inactive),–,> 100 µM (inactive)
CCOc1ccc(C(=O)/C=C2/Nc3ccccc3N/C2=C/C(=O)c2ccc(OCC)cc2)cc1,> 100 µM (inactive),> 100 µM (inactive),> 100 µM (inactive),29.7 µM (inactive),> 100 µM (inactive),> 100 µM (inactive),> 100 µM (inactive),> 100 µM (inactive),> 100 µM (inactive),> 100 µM (inactive),> 100 µM (inactive),> 100 µM (inactive),> 100 µM (inactive),–,> 100 µM (inactive),3.43 µM (inactive),> 100 µM (inactive),> 100 µM (inactive),> 100 µM (inactive),> 100 µM (inactive)
Cc1cc(C)nc(NC(=S)Nc2ccc(Cl)cc2)c1,48.3 µM (inactive),–,60.5 µM (inactive),> 100 µM (inactive),> 100 µM (inactive),17.4 µM (inactive),–,–,> 100 µM (inactive),> 100 µM (inactive),74.8 µM (inactive),–,> 100 µM (inactive),20.1 µM (inactive),> 100 µM (inactive),> 100 µM (inactive),> 100 µM (inactive),33.7 µM (inactive),> 100 µM (inactive),21.3 µM (inactive)
Nc1nc(N)c(C2=CCNCC2)c(=O)[nH]1,> 100 µM (inactive),> 100 µM (inactive),> 100 µM (inactive),> 100 µM (inactive),> 100 µM (inactive),> 100 µM (inactive),–,> 100 µM (inactive),> 100 µM (inactive),> 100 µM (inactive),> 100 µM (inactive),> 100 µM (inactive),> 100 µM (inactive),> 100 µM (inactive),> 100 µM (inactive),> 100 µM (inactive),> 100 µM (inactive),–,> 100 µM (inactive),> 100 µM (inactive)
C=CCCCC1SC2=C(CC)CCCN2C1=O (configuration not stated),90.4 µM (inactive),89.1 µM (inactive),> 100 µM (inactive),–,> 100 µM (inactive),78.7 µM (inactive),–,36.9 µM (inactive),> 100 µM (inactive),42.7 µM (inactive),92 µM (inactive),49.1 µM (inactive),78.7 µM (inactive),> 100 µM (inactive),> 100 µM (inactive),57.7 µM (inactive),77.4 µM (inactive),84.3 µM (inactive),27.6 µM (inactive),74.6 µM (inactive)
CC1=C(c2ccccc2)NC(=S)C(C)C(c2ccccc2)=N1 (configuration not stated),27.2 µM (inactive),11.7 µM (inactive),56.6 µM (inactive),12.1 µM (inactive),40.4 µM (inactive),42.3 µM (inactive),34.3 µM (inactive),–,10.6 µM (inactive),27 µM (inactive),> 100 µM (inactive),9.91 µM (inactive),–,83.4 µM (inactive),56.2 µM (inactive),22 µM (inactive),44.1 µM (inactive),58.2 µM (inactive),28.8 µM (inactive),27.5 µM (inactive)
COC1CCC(=O)N1CN(C(C)=O)c1ccc(C)cc1 (configuration not stated),> 10 µM (inactive),> 100 µM (inactive),> 100 µM (inactive),0.0569 µM (active),> 100 µM (inactive),–,> 100 µM (inactive),–,> 100 µM (inactive),> 100 µM (inactive),> 100 µM (inactive),> 100 µM (inactive),> 100 µM (inactive),> 100 µM (inactive),> 100 µM (inactive),> 100 µM (inactive),> 100 µM (inactive),> 100 µM (inactive),> 100 µM (inactive),> 100 µM (inactive)
C(#CP(c1ccccc1)c1ccccc1)P(C#CP(c1ccccc1)c1ccccc1)c1ccccc1,> 100 µM (inactive),> 100 µM (inactive),> 100 µM (inactive),> 100 µM (inactive),> 100 µM (inactive),> 100 µM (inactive),> 100 µM (inactive),> 100 µM (inactive),> 100 µM (inactive),> 100 µM (inactive),> 100 µM (inactive),–,> 100 µM (inactive),> 100 µM (inactive),> 100 µM (inactive),> 100 µM (inactive),> 100 µM (inactive),> 100 µM (inactive),> 100 µM (inactive),> 100 µM (inactive)
CN(/N=C/c1ccc(OCc2cccc(COc3ccc(C=O)cc3)n2)cc1)c1cnn(-c2ccc(Cl)cc2Cl)c(=O)c1Cl,48.5 µM (inactive),73.5 µM (inactive),> 100 µM (inactive),> 100 µM (inactive),> 100 µM (inactive),16 µM (inactive),> 100 µM (inactive),–,> 100 µM (inactive),> 100 µM (inactive),20.7 µM (inactive),> 100 µM (inactive),> 100 µM (inactive),> 100 µM (inactive),> 100 µM (inactive),> 100 µM (inactive),> 100 µM (inactive),64.9 µM (inactive),> 100 µM (inactive),56 µM (inactive)
c1cc2c(c(NC3=NCCO3)c1)CCC2,> 100 µM (inactive),> 100 µM (inactive),> 100 µM (inactive),> 100 µM (inactive),> 100 µM (inactive),> 100 µM (inactive),–,94.4 µM (inactive),> 100 µM (inactive),> 100 µM (inactive),> 100 µM (inactive),> 100 µM (inactive),> 100 µM (inactive),> 100 µM (inactive),> 100 µM (inactive),86.5 µM (inactive),> 100 µM (inactive),> 100 µM (inactive),> 100 µM (inactive),> 100 µM (inactive)
CC(=O)Nc1cc(Nc2cc(O)nc(O)n2)ccc1C,> 100 µM (inactive),> 100 µM (inactive),–,> 100 µM (inactive),> 100 µM (inactive),> 100 µM (inactive),> 100 µM (inactive),> 100 µM (inactive),> 100 µM (inactive),> 100 µM (inactive),> 100 µM (inactive),–,> 100 µM (inactive),> 100 µM (inactive),> 100 µM (inactive),> 100 µM (inactive),> 100 µM (inactive),> 100 µM (inactive),> 100 µM (inactive),> 100 µM (inactive)
O=C1Nc2ccc(Br)cc2/C1=N/NC(=S)Nc1ccc(F)cc1,2.26 µM (inactive),3.43 µM (inactive),2.12 µM (inactive),–,4.3 µM (inactive),–,–,3.61 µM (inactive),3.61 µM (inactive),3.43 µM (inactive),12.6 µM (inactive),0.794 µM (active),13.3 µM (inactive),4.25 µM (inactive),4.15 µM (inactive),1.71 µM (inactive),4.78 µM (inactive),5.86 µM (inactive),9.77 µM (inactive),4.31 µM (inactive)
COc1cc(/C=C/C(=O)O)ccc1O [FERULATE],–,> 100 µM (inactive),> 100 µM (inactive),> 100 µM (inactive),> 100 µM (inactive),> 100 µM (inactive),> 100 µM (inactive),> 100 µM (inactive),> 100 µM (inactive),> 100 µM (inactive),> 100 µM (inactive),> 100 µM (inactive),> 100 µM (inactive),> 100 µM (inactive),> 100 µM (inactive),> 100 µM (inactive),> 100 µM (inactive),> 100 µM (inactive),> 100 µM (inactive),> 100 µM (inactive)
